Assays:
[1] = test system: IL-17AF-induced IL-17 signaling pathway; assay: Inhibition of IL-17AF-induced IL-17 signaling pathway; type: cell-based; details: Homo sapiens; IL-17AF used instead of IL-17AA; read-out: IC50 for Inhibiting IL-AF Signaling
From the text: (§1) Interleukin-17 (IL-17) reporter cell line (HEK-Blue IL-17, InvivoGen, Catalog Number hkb-i117) is created by genetically engineering human IL-17RA/IL-17RC heterodimeric receptor and downstream adapter protein ACT1 into human embryonic kidney 293 cells (HEK293). These cells also express secreted embryonic alkaline phosphatase (SEAP) reporter gene induced by NF-κB and AP-1. Therefore, IL-17AA can activate NF-κB and AP-1 signaling pathways inside the cells by binding to IL-17RA/RC on cell membrane, leading to expression of SEAP protein. After a colorimetric reaction between SEAP protein and Quanti-Blue solution, the absorbance at 620 nm is measured using a microplate reader (BioTek H1M, Agilent, Catalog Number SH1M-SN) to determine IL-17AA-activated signaling pathway.
(§2) In the experiment, HEK-Blue IL-17 cells were cultured at 37° C. under 5% CO2 conditions using the recommended medium from InvivoGen's instruction. Compounds were serially diluted starting from 10 μM. 4 μL of each compound solution was added to 32 μL of cells (10,000 cells) at 37° C. for 1 hour. After pre-incubation, 4 μL of IL-17AA with a final concentration of 2.5 ng/mL (Sino Biological, Catalog Number 12047-HNAS) was added to the cells, and incubation was continued for additional 20 hours. After incubation, 5 μL of cell culture supernatant was added to 45 μL of Quanti-Blue for the colorimetric reaction. The group without tested compound had the highest absorbance at 620 nm, and the group without IL-17AA had the lowest absorbance at 620 nm.
(§3) Therefore, the percentage of inhibition of tested compound was calculated as
(§4) Experimental results were analyzed using XLfit (IDBS) for 4-parameter nonlinear fitting analysis to provide the IC50 value for each tested compound (Table 1).
Example 44. Inhibition of IL-17AF-Induced IL-17 Signaling Pathway
The same experimental procedure to Example […] was followed where IL-17AF was used instead of IL-17AA.

[2] = test system: IL-17AA-induced IL-17 signaling pathway; assay: Inhibition of IL-17AA-induced IL-17 signaling pathway in HEK-Blue IL-17 reporter cells (SEAP); type: cell-based; details: Homo sapiens; HEK-Blue IL-17 cells, IL-17AA 2.5 ng/mL, 20 hours; read-out: IC50 for Inhibiting IL-AA Signaling
From the text: Example 43. Inhibition of IL-17AA-Induced IL-17 Signaling Pathway
as §1, §2, §3, §4

IL-17AA and IL-17RA = target: T1, IL-17AA and IL-17RA (Homo sapiens, UniProt Q16552); assay: Competitive inhibition of human IL-17AA and IL-17RA binding (HTRF); details: recombinant IL-17AA (His-tag) and IL-17RA (hFc-tag); read-out: IC50 for Inhibiting IL-AA/IL-RA Binding
T1 construct: purchased Sino Biological 12047-H07B (IL-17AA); 10895-H02H (IL-17RA)
T1 sequence (Q16552 24-155): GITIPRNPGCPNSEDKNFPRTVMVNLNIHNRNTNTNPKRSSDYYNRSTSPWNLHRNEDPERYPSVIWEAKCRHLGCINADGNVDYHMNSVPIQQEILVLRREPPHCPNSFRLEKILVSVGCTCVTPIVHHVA
Description: Example 42. Competitive Inhibition of Human IL-17AA and IL-17RA Binding
Recombinant IL-17AA (His-tag, Catalog Number 12047-H07B) and IL-17RA (hFc-tag, Catalog Number 10895-H02H) were purchased from Sino Biological. In the experiment, 10 μL of IL-17AA (1 nM) or IL-17RA (1 nM) was added to 10 μL of anti-6His-Tb (0.4 nM, Revvity, Catalog Number 61HISTLF) or anti-human IgG-d2 (1 μg/mL, anti-human IgG-d2, Revvity, Catalog Number 61HFCDAF), respectively and incubated at room temperature for 1 hour. Compounds were serially diluted starting from 10 μM. 5 μL of each compound solution was incubated with 5 μL of a mixture of IL-17AA and anti-6His-Tb at room temperature for 2 hours. After pre-incubation, to which was added 10 μL of a mixture of IL-17RA and anti-human IgG-d2, and incubation was continued for additional 20 minutes. Subsequently, a microplate reader (Envision, PerkinElmer) was used to detect fluorescence intensity at 615 nm and 665 nm, and the ratio of intensity thereof indicates the degree of IL-17AA and IL-17RA interaction. The ratio of intensity in the absence of tested compound was the highest value of binding between IL-17AA and IL-17RA, and the ratio of intensity in the absence of IL-17AA was the lowest value.
as §3
Experimental results were analyzed using XLfit (IDBS) for 4-parameter nonlinear fitting analysis, to provide the IC50 value for each tested compound (Table 1).

IC50 [1] | IC50 [2] | IC50 (IL-17AA and IL-17RA) | SMILES
13 nM | 8 nM | 1.1 nM | CC(=O)N[C@@H](c1ncnn1CC1CC1)[C@@H](C)c1ccc(NC(=O)[C@@H](NC(=O)c2nonc2C)C(C2CC2)C2CC2)c(F)c1 [Compound 67, N-((S)-1-((4-((1R,2S)-1-acetamido-1-(1-(cyclopropylmethyl)-1H-1,2,4-triazol-5-yl)propan-2-yl)-2-fluorophenyl)amino)-3,3-dicyclopropyl-1-oxopropan-2-yl)-4-methyl-1,2,5-oxadiazole-3-carboxamide]
24 nM | 8.4 nM | 7.8 nM | CCn1nccc1C(=O)N[C@H](C(=O)Nc1ccc([C@H](C)[C@@H](NC(=O)COC)c2ncccc2CC2CC2)cc1F)C(C1CC1)C1CC1 [Compound 28, N-((S)-1,1-dicyclopropyl-3-((4-((1R,2S)-1-(3-(cyclopropylmethyl)pyridin-2-yl)-1-(2-methoxyacetamido)propan-2-yl)-2-fluorophenyl)amino)-3-oxopropan-2-yl)-1-ethyl-1H-pyrazole-5-carboxamide]
516 nM | 146 nM | 66 nM | CCn1nccc1C(=O)N[C@H](C(=O)Nc1ccc([C@H](C)[C@@H](NC(=O)COC)c2nncn2C)cc1F)C(C1CC1)C1CC1 [Compound 6, N-((S)-1,1-dicyclopropyl-3-((2-fluoro-4-((1R,2S)-1-(2-methoxyacetamido)-1-(4-methyl-4H-1,2,4-triazol-3-yl)propan-2-yl)phenyl)amino)-3-oxopropan-2-yl)-1-ethyl-1H-pyrazole-5-carboxamide]
3.9 nM | 3.3 nM | 1.7 nM | Cc1nonc1C(=O)N[C@H](C(=O)Nc1ccc([C@H](C)[C@@H](NC(=O)COC2CC2)c2ncnn2CC2CC2)cc1F)C(C1CC1)C1CC1 [Compound 60, N-((S)-1-((4-((1R,2S)-1-(2-cyclopropoxyacetamido)-1-(1-(cyclopropylmethyl)-1H-1,2,4-triazol-5-yl)propan-2-yl)-2-fluorophenyl)amino)-3,3-dicyclopropyl-1-oxopropan-2-yl)-4-methyl-1,2,5-oxadiazole-3-carboxamide]
61 nM | 31 nM | 5.4 nM | CCC(=O)N[C@@H](c1ncnn1CC1CC1)[C@@H](C)c1ccc(NC(=O)[C@@H](NC(=O)c2nsnc2C)C(C2CC2)C2CC2)c(F)c1 [Compound 74, N-((S)-1,1-dicyclopropyl-3-((4-((1R,2S)-1-(1-(cyclopropylmethyl)-1H-1,2,4-triazol-5-yl)-1-propionamidopropan-2-yl)-2-fluorophenyl)amino)-3-oxopropan-2-yl)-4-methyl-1,2,5-thiadiazole-3-carboxamide]
49 nM | 13 nM | 27 nM | CCC(=O)N[C@@H](c1nncn1CC1CC1)[C@@H](C)c1ccc(NC(=O)[C@@H](NC(=O)c2ccnn2CC)C(C2CC2)C2CC2)c(F)c1 [Compound 1, N-((S)-1,1-dicyclopropyl-3-((4-((1R,2S)-1-(4-(cyclopropylmethyl)-4H-1,2,4-triazol-3-yl)-1-propionamidopropan-2-yl)-2-fluorophenyl)amino)-3-oxopropan-2-yl)-1-ethyl-1H-pyrazole-5-carboxamide]
145 nM | 78 nM | 13 nM | Cc1nonc1C(=O)N[C@H](C(=O)Nc1ccc([C@H](C)[C@@H](NC(=O)COC2CN(C)C2)c2ncnn2CC2CC2)cc1F)C(C1CC1)C1CC1 [Compound 56, N-((S)-1,1-dicyclopropyl-3-((4-((1R,2S)-1-(1-(cyclopropylmethyl)-1H-1,2,4-triazol-5-yl)-1-(2-((1-methylazetidin-3-yl)oxy)acetamido)propan-2-yl)-2-fluorophenyl)amino)-3-oxopropan-2-yl)-4-methyl-1,2,5-oxadiazole-3-carboxamide]
320 nM | 91 nM | 49 nM | CCn1nccc1C(=O)N[C@H](C(=O)Nc1ccc([C@H](C)[C@@H](NC(=O)COC)c2nncn2C2CC2)cc1F)C(C1CC1)C1CC1 [Compound 12, N-((S)-1,1-dicyclopropyl-3-((4-((1R,2S)-1-(4-cyclopropyl-4H-1,2,4-triazol-3-yl)-1-(2-methoxyacetamido)propan-2-yl)-2-fluorophenyl)amino)-3-oxopropan-2-yl)-1-ethyl-1H-pyrazole-5-carboxamide]
7.3 nM | 7.5 nM | 3.4 nM | Cc1nonc1C(=O)N[C@H](C(=O)Nc1ccc([C@H](C)[C@@H](NC(=O)CC#N)c2ncnn2CC2CC2)cc1F)C(C1CC1)C1CC1 [Compound 70, N-((S)-1-((4-((1R,2S)-1-(2-cyanoacetamido)-1-(1-(cyclopropylmethyl)-1H-1,2,4-triazol-5-yl)propan-2-yl)-2-fluorophenyl)amino)-3,3-dicyclopropyl-1-oxopropan-2-yl)-4-methyl-1,2,5-oxadiazole-3-carboxamide]
49 nM | 32 nM | 18 nM | CCC(=O)N[C@@H](c1ncn(CCNC2CC2)n1)[C@@H](C)c1ccc(NC(=O)[C@@H](NC(=O)c2nonc2C)C(C2CC2)C2CC2)c(F)c1 [Compound 80, N—((S)-1,1-dicyclopropyl-3-((4-((1R,2S)-1-(1-(2-(cyclopropylamino)ethyl)-1H-1,2,4-triazol-3-yl)-1-propionamidopropan-2-yl)-2-fluorophenyl)amino)-3-oxopropan-2-yl)-4-methyl-1,2,5-oxadiazole-3-carboxamide]
36 nM | 19 nM | 6 nM | CCC(=O)N[C@@H](c1ncnn1CCNC1CC1)[C@@H](C)c1ccc(NC(=O)[C@@H](NC(=O)c2nonc2C)C(C2CC2)C2CC2)c(F)c1 [Compound 79, N-((S)-1,1-dicyclopropyl-3-((4-((1R,2S)-1-(1-(2-(cyclopropylamino)ethyl)-1H-1,2,4-triazol-5-yl)-1-propionamidopropan-2-yl)-2-fluorophenyl)amino)-3-oxopropan-2-yl)-4-methyl-1,2,5-oxadiazole-3-carboxamide]
8.6 nM | 2.6 nM | 7.4 nM | CCn1nccc1C(=O)N[C@H](C(=O)Nc1ccc([C@H](C)[C@@H](NC(=O)COC)c2ncnn2CCOC)cc1F)C(C1CC1)C1CC1 [Compound 40]
46 nM | 28 nM | 13 nM | CC(=O)N[C@@H](c1nncn1CC1CC1)[C@@H](C)c1ccc(NC(=O)[C@@H](NC(=O)c2ccnn2C(C)C)C(C2CC2)C2CC2)c(F)c1 [Compound 22, N-((S)-1-((4-((1R,2S)-1-acetamido-1-(4-(cyclopropylmethyl)-4H-1,2,4-triazol-3-yl)propan-2-yl)-2-fluorophenyl)amino)-3,3-dicyclopropyl-1-oxopropan-2-yl)-1-isopropyl-1H-pyrazole-5-carboxamide]
159 nM | 124 nM | 29 nM | CCn1nccc1C(=O)N[C@H](C(=O)Nc1ncc([C@H](C)[C@@H](NC(=O)COC)c2ncnn2CC2CC2)cc1F)C(C1CC1)C1CC1 [Compound 46, N-((S)-1,1-dicyclopropyl-3-((5-((1R,2S)-1-(1-(cyclopropylmethyl)-1H-1,2,4-triazol-5-yl)-1-(2-methoxyacetamido)propan-2-yl)-3-fluoropyridin-2-yl)amino)-3-oxopropan-2-yl)-1-ethyl-1H-pyrazole-5-carboxamide]
